Patent publication US20050197364A1, “Amide compounds as ion channel ligands and uses thereof” (priority 2003, published 2005)

Experiments:
CYP3A4 = CYP3A4 (Homo sapiens, UniProt P08684); experiment: Cytochrome p450 inhibition assessment, CYP3A4; type: in vitro ADME; settings: concentration range tested, upper 100 μM
Procedure: (§1) The ability of test compounds to inhibit five major human cytochrome p450 isozymes was evaluated. Cytochrome p450 inhibition assays were performed on 96-well microtiter assay plates according to the protocols described in Gentest P450 inhibition instruction manuals. The assays were performed in duplicate at 8 concentrations with the upper concentration of 100 μM followed by a 1:3 serial dilution. Reactions were initiated by the addition of 100 μL of enzyme/substrate mix to 100 μL of cofactor/serial dilution mix, and terminated by addition of 75 μL of a 4:1 acentonitrile: 0.5 M Tris base solution or by 2N NaOH for CYP3A4/DBF. Fluorescence was measured using a fluorescence plate reader (FLUOstar model 403, BMG Lab Technologies, Durham, N.C.). For reactions with inhibition greater than 50%, IC50 values were determined by fitting the data to the Hill equation using software GraphPad Prism (Version 4.02, GraphPad Software, San Diego, Calif.).

[1] = Pharmacokinetic profile after intravenous and oral administration; type: in vivo; settings: male, Sprague-Dawley, rat, plasma, rats, IV 1 mg/kg and oral 5 mg/kg
Procedure: The pharmacokinetic profile of Compound 18 was evaluated following intravenous and oral administration in rats. Sprague-Dawley male rats obtained from Charles River, San Diego, Calif. were acclimated for 24 hours. Compound 18 was formulated at a concentration of 0.5 mg/mL for IV administration at a 1 mg/kg dose and 1 mg/mL for oral administration at a 5 mg/kg dose. All animals were weighed before dosing. The body weight was used to calculate the actual dose for each animal. The intravenous dose was administered through the jugular vein catheter in less than 1 minute. The oral dose volume was 1.5 ml for all PO rats administered through oral […]. […] For PO dosing, blood samples were collected using a pre-heparinized syringe via the carotid artery catheter before dosing and at t=5, 15, 30, 60, 120, 180, 360, and 480 minutes post dosing. 250 uL of blood was obtained at each time point from each animal. Equal volumes of 0.9% normal saline were replaced to prevent dehydration. The whole blood samples were maintained on ice until centrifugation. Blood samples were centrifuged at 14,000 rpm for 10 minutes at 4° C., and the upper plasma layer was transferred into a clean vial and store at −80° C. The plasma was analyzed.

CYP1A2 = target: T1, CYP1A2 (Homo sapiens, UniProt P05177); experiment: Cytochrome p450 inhibition assessment, CYP1A2; type: in vitro ADME; settings: estimated
T1 sequence (P05177 1-516): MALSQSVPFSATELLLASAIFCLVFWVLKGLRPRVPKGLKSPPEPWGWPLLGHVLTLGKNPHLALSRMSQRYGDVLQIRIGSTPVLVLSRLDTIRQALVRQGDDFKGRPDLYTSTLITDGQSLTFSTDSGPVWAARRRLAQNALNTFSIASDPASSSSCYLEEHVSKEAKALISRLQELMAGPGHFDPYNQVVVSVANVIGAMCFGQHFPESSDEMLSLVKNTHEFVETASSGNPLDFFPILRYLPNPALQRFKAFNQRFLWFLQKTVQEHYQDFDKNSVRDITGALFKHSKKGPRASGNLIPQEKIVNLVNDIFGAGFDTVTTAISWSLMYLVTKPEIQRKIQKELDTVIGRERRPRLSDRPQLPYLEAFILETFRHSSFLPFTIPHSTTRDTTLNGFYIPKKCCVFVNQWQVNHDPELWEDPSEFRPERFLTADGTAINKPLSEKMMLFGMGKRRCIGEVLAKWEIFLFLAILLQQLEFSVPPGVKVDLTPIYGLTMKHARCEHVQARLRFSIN
Procedure: as §1

[2] = Plasma protein binding by equilibrium dialysis, human plasma; type: in vitro ADME; settings: human plasma in sodium citrate, pH 7.4, 37° C., read-out: human plasma protein binding (% Bound)
Procedure: Membranes from Harvard/Amika with a molecular weight cutoff of 5,000 were rinsed with dH2O then placed in pH 7.4 PBS supplied by Gibco. The membranes were allowed to soak for 1 hour. A stock of the test article was pooled with Warfarin, Atropine at 2 mM in DMSO. The test article was then dosed into human plasma in sodium citrate, Rat Plasma, and Mouse Plasma to a final 10 μM concentration (0.5% DMSO v/v). The pre-soaked membranes were then placed into dialysis chambers. 500 μL of PBS was added to one side of the chamber, and 500 μL of the Matrix containing the test article was added to the other side of the chamber.
The chambers were then placed into an enclosed, heated rocker, which was pre-warmed to 37° C. and allowed to reach equilibrium for at least 22 hours. After 22 hours both sides were sampled. 100 μL of the donor side was added to 500 μL of PBS. 100 μL of the PBS side was added to 20 μL of fresh matrix. Samples then were crashed with 1:1 Acetonitrile and centrifuged at 10,000 RPM for 10 minutes. […]
Standards were prepared in a 1:5 plasma:PBS mixture at 5, 1.5, 0.5, 0.15, 0.05, 0.015 and 0.005 μM concentrations. […] Protein binding values were calculated as follows: % Bound=[(Concentration in Donor−Concentration in Receiver)/(Concentration in Donor)]×100. % Recovery=[(Concentration in donor+Concentration in Receiver)]/(Concentration in Normal Initial)]×100

[3] = test system: capsaicin induced plasma extravasation; experiment: Plasma extravasation study (capsaicin applied to ear, Evans Blue); type: in vivo, rat; settings: rats, dose of 30 mg/kg, dosed two hours before Evans Blue; FIG. 2
Procedure: The density of TRPV1 expression is enhanced during an inflammatory condition. Therefore TRPV1 antagonists have been investigated in three different models of inflammatory pain, namely plasma extravasation, paw lick assay, and thermal hyperalgesia.
Sprague-Dawley male rats obtained from Charles River, San Diego, Calif. were dosed with compound 18. Two hours later, they were injected with Evan's Blue (10 ml/kg or 150 μl). Thirty minutes after I.V. injection, 10 μl of 25 mM capsaicin in 100% ethanol was applied to the left ear of the animal, followed by 10 μl vehicle (100% EtOH) to the right ear of the […]. Fifteen minutes later, the animal was sacrificed using CO2. Each ear was removed, placed into labeled tubes and weighed. The dye was then extracted from the ears by drying the ears at 55-60° overnight. The following day, 250 μl formamide was added and left at 55-60° overnight.
An Evans blue standard curve was first generated ([…]). Samples (with ears) were spun for at least 1 minute before addition of 100 μl of each sample to appropriate wells. Samples were analyzed in a plate holder by SOFTmax PRO. Standards were graphed to generate a standard curve and then used to extrapolate Evans Blue concentrations of experimental samples.

CYP3A4, sequence (P08684 whole entry): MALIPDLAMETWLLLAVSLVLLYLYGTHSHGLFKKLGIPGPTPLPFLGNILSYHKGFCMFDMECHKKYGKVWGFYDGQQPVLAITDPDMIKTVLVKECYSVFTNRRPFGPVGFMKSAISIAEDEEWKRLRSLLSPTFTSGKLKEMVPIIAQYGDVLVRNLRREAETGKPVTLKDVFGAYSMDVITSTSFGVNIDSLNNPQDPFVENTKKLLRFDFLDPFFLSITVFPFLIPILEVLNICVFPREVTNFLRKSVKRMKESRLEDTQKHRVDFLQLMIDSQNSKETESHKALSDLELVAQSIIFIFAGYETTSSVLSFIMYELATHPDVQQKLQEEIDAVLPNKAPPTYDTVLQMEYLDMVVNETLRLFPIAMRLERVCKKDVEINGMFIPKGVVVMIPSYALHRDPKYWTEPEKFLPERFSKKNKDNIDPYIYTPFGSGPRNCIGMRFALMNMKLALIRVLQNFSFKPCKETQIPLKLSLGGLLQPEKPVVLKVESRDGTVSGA

- inhibition of CYP3A4 activity (CYP3A4): did not significantly inhibit
- Cmax [1]: 1750 nM
- Tmax [1]: 3 h
- clearance ([1]; read-out: Clearance (Cl) (converted)): 8.83 mL/min/kg
- bioavailability ([1]; read-out: Oral Bioavailability (%F)): 30.1%
- Vd ([1]; read-out: Volume of distribution (Vd)): 2.82 L/kg
- half-life ([1]; read-out: half life (t1/2) (converted)): 3.71 h
- IC50 (CYP1A2): 97.5 µM
- fraction unbound at 22 h, 10 µM [2]: < 0.002
Compound: O=C(Nc1ccc(C(F)(F)F)cc1)c1ccc(-c2ncccc2Cl)cc1 [Compound 18, 4-(3-Chloropyridin-2-yl)-N-(4-trifluoromethyl-phenyl)benzamide]
- capsaicin induced plasma extravasation [3]: significantly blocks
